Experimental data from patent US8003673B2, “Daptomycin for the treatment of biofilm and catheter salvage” (Cubist Pharmaceuticals, Inc., priority 2006, dated 2011).
≈ marks a conversion by molar mass, not a printed value. Entries after “also recorded” stand apart in the source; their conditions may differ. Where two headings read alike, the source gives them in different places.

Columns and labels:
Staphylococcus aureus = experiment: Susceptibility (MIC) of S. aureus #42 control strain; type: cell-based; conditions: strain 42 Staphylococcus aureus; read-out: MIC
[1] = tested on: S. epidermidis CVC infection; experiment: Rat model of CVC infection, infusion therapy; type: in vivo, Sprague Dawley rats
Method: (§1) Male Sprague Dawley rats (˜250 g) with catheterized jugular veins were used in these studies. Rat catheters (polyurethane tubing, 0.025 inch internal diameter) were inoculated with a culture of S. epidermidis at 5×10^8 CFU/ml. The total volume of the catheters is approximately 40 μl. The catheters were flushed with heparinized saline 1 hour after inoculation, and were maintained by daily flushes. The catheter infection was monitored by daily blood draws that were plated and quantified.
(§2) Daptomycin, vancomycin and nafcillin were used as therapy. Two different dosing regimes were used. The first mimicked clinical infusion with daptomycin administered at 5 mg/ml in the line for 30 minutes once daily compared to vancomycin at 5 mg/ml for 60 minutes twice daily, for a total of 4 days. The second regime simulated antibiotic lock therapy with an 18 hour exposure of daptomycin or vancomycin at 5 mg/ml, followed by a heparinized saline flush, daily for 3 days. In both regimes, the animals received parenteral doses of the appropriate antibiotic by subcutaneous route to simulate total body exposure (as it was not possible to administer the correct dosages through the line at 5 mg/ml). Most trials involved a therapy period, followed by a period of no antibiotic therapy to monitor for resurgence of infection due to surviving bacterial colonies.
(§3) Infection levels were monitored by daily blood draws through the infected catheter. For the terminal harvest, a final blood draw was taken and then the flushed catheter was harvested, and analyzed for surviving bacteria by sonication, vortexing, and plating. The vena cava, heart, lung, kidney, and spleen were assayed as potential metastatic infection sites by aseptic harvest, homogenization, and plating.

[2] = tested on: S. epidermidis CVC infection; experiment: Rat model of CVC infection, antibiotic lock therapy; type: in vivo, Sprague Dawley rats
Method: as §1, §2, §3

[3] = tested on: S. epidermidis biofilm in catheter; experiment: Histopathology of CVC biofilms in the rat model; type: in vivo, Sprague Dawley rats
Method: The nature of the CVC infection and resulting biofilms in the catheter was determined through histopathology. The data on histopathology can be summarized as follows: • 1. Eight days after implantation, the rat central venous catheter model develops focal biofilms with or without bacterial colonies in the catheter's inner luminal surfaces. At this time point, the thickness of the biofilm varies between 7 to 15 microns. • 2. After 12 days of implantation, the fibrils making up the inner luminal surface biofilm appear to be denser and more organized, and the biofilm layer is slightly thicker (up to 25 microns). • 3. In the saline negative controls, bacterial colonies were present in the biofilm, and identified as Gram positive cocci. • 4. […] However, cocci-like, Gram positive individual round structures were noted. • 5.
At day 12 post infection in untreated rats, as in the previous time point, biofilms tended to be present in the inner luminal surfaces of the indwelling catheter, 5-25 microns thick, and contained variable numbers of basophilic granular bacterial colonies (confirmed by Gram stain). However, in contrast to the previous time point, focal portions of the luminal protein cast appeared to be more organized and contained numerous bluish bacterial colonies. See FIG. 10 showing the biofilm appearance at day 12 post infection. […] Rat A1 served as negative control and received saline (2 mL/kg SC+saline via catheter); Rat A6 received low-dose daptomycin (10 mg/kg SC+5 mg/mL via catheter); Rat A12 received high-dose daptomycin (33 mg/kg SC+5 mg/mL via catheter); and Rat A17 received vancomycin (50 mg/kg SC+5 mg/mL via catheter). Tissues from the four rats were evaluated. FIG. 11, below, is a composite of the findings for all four rats.
FIG. 11 provides histopathological evidence of daptomycin and vancomycin efficacy after 4 days of infusion therapy. In FIG. 11, from left to right, the images illustrate the CVC tissues from rats A1, A6, A12, and A17, respectively. The upper images are all H&E-stained and the bottom images are all Gram-stained. […] These round structures surrounded or encircled cell membranes.

[4] = tested on: stationary phase S. epidermidis; experiment: In vitro model of stationary phase bacteria (kill kinetics); type: cell-based; conditions: for Cidal activity against stationary phase culture: through 24 hours
Method: The impact of cidal activity of antibacterial compounds on stationary phase bacteria was assayed. Cultures of S. epidermidis and S. aureus were grown to stationary phase (>1×10^9 and centrifuged, washed 2×, and then resuspended into saline or lactated Ringer's solution. The cultures were treated with either daptomycin or vancomycin at 5 mg/ml and the decrease in viable bacteria were measured through 24 hours to determine the kill kinetics.

[5] = tested on: Methicillin-resistant coagulate negative staphylococci biofilms; type: cell-based, coagulase negative staphylococci (S. epidermidis isolates)
Method: Methicillin-resistant coagulate negative staphylococci biofilms were grown to approximately 10^5 cells per cm^2 for 24 h in glass test tubes, planktonic bacteria rinsed away and Mueller Hinton broth (calcium supplemented to […] in daptomycin tests) containing antimicrobials added to the tubes. The concentrations of antimicrobials studied were two-fold dilutions from 64 to 1 μg/mL of daptomycin, rifampin, or daptomycin plus 0.5 μg/mL rifampin. The tests were incubated overnight in room air at 37° C. The cell density in rinsed biofilms was determined prior to addition of antimicrobials and after incubation. The change in bacterial density after incubation with antimicrobials was determined, and the results were expressed as the lowest antimicrobial concentration that killed 99.90% of biofilm bacteria. Bacteria recovered from tests containing rifampin were tested for rifampin susceptibility.

[6] = tested on: Staphylococcus epidermidis; experiment: Susceptibility (MIC) of S. epidermidis isolates used in CVC studies
[7] = following 7 days of antibiotic-free heparin flushes
[8] = Antimicrobial Concentration ≧64

CCCCCCCCCC(=O)N[C@@H](Cc1c[nH]c2ccccc12)C(=O)N[C@H](CC(N)=O)C(=O)N[C@@H](CC(=O)O)C(=O)N[C@@H]1C(=O)NCC(=O)N[C@@H](CCCN)C(=O)N[C@@H](CC(=O)O)C(=O)N[C@H](C)C(=O)N[C@@H](CC(=O)O)C(=O)NCC(=O)N[C@H](CO)C(=O)N[C@@H]([C@H](C)CC(=O)O)C(=O)N[C@@H](CC(=O)c2ccccc2N)C(=O)O[C@@H]1C [Daptomycin]
MIC (Staphylococcus aureus): 0.5 µg/mL (≈ 0.309 µM)
Catheter infection by CVC blood draw after infusion therapy ([1]; 5 mg/ml in line, daptomycin once a day, vancomycin twice a day, after three days of therapy (day 8)): reduced most catheter infections to a non-detectable level
Overall outcome of infusion therapy ([1]; 30 minute infusion at 5 mg/ml): temporarily reduced catheter infections to a non-detectable level, but infection resurgence was common; also recorded: reduced biofilm to non-detectable level, but a resurgence of infection was common
Metastatic infection after infusion therapy (vena cava, heart, lung, kidney, spleen) ([1]; infusion therapy, same groups as FIG. 3): very little metastatic infection at any site
Overall outcome of lock therapy ([2]; 18 hour lock at 5 mg/ml): curative and prevented resurgence; also recorded: reduced biofilm to a non-detectable level and largely prevented resurgence of infection
Animals with positive blood draws after lock therapy [2, 7]: 0/6
Animals with positive catheter at harvest after lock therapy [2, 7]: 1/6
Metastatic infection after lock therapy ([2]; lock therapy combined with SC dosing): cleared and prevented reemergence of metastatic infection
Biofilm formation and Gram positive bacterial colonies in the biofilm (histopathology summary) ([3]; 5 mg/mL via the catheter): did not prevent biofilm formation, but prevented the growth and presence of Gram positive bacterial colonies in the biofilm
Bacterial colonies in biofilm, histopathology of single rats ([3]; after 4 days of infusion therapy, rat A12 daptomycin 33 mg/kg SC + 5 mg/mL via catheter, rat A17 vancomycin 50 mg/kg SC + 5 mg/mL via catheter): not interpreted to be bacterial colonies
Cidal activity against stationary phase culture ([4]; 5 mg/ml in lactated Ringer's): rapidly cidal; also recorded: cidal in lactated Ringer's
Cidal activity against stationary phase culture ([4]; 5 mg/ml in saline): neither daptomycin nor vancomycin had cidal activity
Cidal activity against stationary phase S. epidermidis (conclusion) ([4]; in vitro, medium not stated): cidal
# of isolates (lowest concentration that killed 99.90% of biofilm bacteria) ([5]; Antimicrobial Concentration 1): 0
# of isolates (lowest concentration that killed 99.90% of biofilm bacteria) ([5]; Antimicrobial Concentration 2): 5
Mean log10 reduction ([5]; Antimicrobial Concentration 2): 3.3 log10
# of isolates (lowest concentration that killed 99.90% of biofilm bacteria) ([5]; Antimicrobial Concentration 4): 4
Mean log10 reduction ([5]; Antimicrobial Concentration 4): 3.2 log10
# of isolates (lowest concentration that killed 99.90% of biofilm bacteria) ([5]; Antimicrobial Concentration 8): 5
Mean log10 reduction ([5]; Antimicrobial Concentration 8): 3.8 log10
# of isolates (lowest concentration that killed 99.90% of biofilm bacteria) ([5]; Antimicrobial Concentration 16): 1
Mean log10 reduction ([5]; Antimicrobial Concentration 16): 3.5 log10
# of isolates (lowest concentration that killed 99.90% of biofilm bacteria) ([5]; Antimicrobial Concentration 32): 2
Mean log10 reduction ([5]; Antimicrobial Concentration 32): 3.6 log10
# of isolates (lowest concentration that killed 99.90% of biofilm bacteria) [5, 8]: 10
Mean log10 reduction [5, 8]: 2.0 log10
Emergence of rifampin resistance in biofilm isolates ([5]; after exposure overnight): did not prevent emergence of rifampin resistance
Cidal concentration in biofilm relative to comparator ([5]; comparison with rifampin): cidal at lower concentrations than was rifampin
Isolates with bactericidal activity in biofilm ([5]; with ≦32 μg/mL daptomycin): 27 of 30
MIC ([6]; strain 119 Staphylococcus epidermidis): 0.25 µg/mL (≈ 0.154 µM)
MIC ([6]; strain 1315 Staphylococcus epidermidis): 0.5 µg/mL (≈ 0.309 µM)
MIC ([6]; strain 1316 Staphylococcus epidermidis): 0.5 µg/mL (≈ 0.309 µM)
MIC ([6]; strain 1317 Staphylococcus epidermidis): 1 µg/mL (≈ 0.617 µM)
MIC ([6]; strain 1318 Staphylococcus epidermidis): 1 µg/mL (≈ 0.617 µM)
MIC ([6]; strain 1319 Staphylococcus epidermidis): 1 µg/mL (≈ 0.617 µM)
MIC ([6]; strain 1320 Staphylococcus epidermidis): 0.5 µg/mL (≈ 0.309 µM)
